# ChEMBL document CHEMBL3826948, “Alkyl substituted aminal derivatives of HCV NS5A inhibitor MK-8742” (Bioorg Med Chem Lett, 2016)
# How the values were obtained:
# [1] = Inhibition of NS5A in HCV genotype 2a assessed as replicon RNA levels by real time PCR based cell based assay; design: species or system Hepatitis C virus subtype 2a; settings: Hepatitis C virus
# [2] = Oral bioavailability in Sprague-Dawley rat at 5 mg/kg; assay type: ADME, organism-based; settings: in vivo
# [3] = Inhibition of NS5A in HCV genotype 4a assessed as replicon RNA levels by real time PCR based cell based assay; design: species or system Hepatitis C virus subtype 4a; settings: Hepatitis C virus
# [4] = Clearance in Sprague-Dawley rat at 5 mg/kg po or 2 mg/kg iv; assay type: ADME, organism-based; settings: in vivo
# [5] = Inhibition of NS5A in HCV genotype 3a assessed as replicon RNA levels by real time PCR based cell based assay; design: species or system Hepatitis C virus subtype 3a; settings: Hepatitis C virus
# [6] = Cmax in Sprague-Dawley rat at 5 mg/kg, po; assay type: ADME, organism-based; design: dose 5 mg/kg, route oral; settings: in vivo
# [7] = Inhibition of NS5A in HCV genotype 1b assessed as replicon RNA levels by real time PCR based cell based assay; design: species or system Hepatitis C virus subtype 1b; settings: Hepatitis C virus
# [8] = Inhibition of NS5A in HCV genotype 1a assessed as replicon RNA levels by real time PCR based cell based assay; design: species or system Hepatitis C virus subtype 1a; settings: Hepatitis C virus
# [9] = Half life in Sprague-Dawley rat at 5 mg/kg po or 2 mg/kg iv; assay type: ADME, organism-based; settings: in vivo
# [10] = AUC in Sprague-Dawley rat at 5 mg/kg, po; assay type: ADME, organism-based; settings: in vivo
# [11] = Inhibition of NS5A in HCV genotype 2b assessed as replicon RNA levels by real time PCR based cell based assay; design: species or system Hepatitis C virus subtype 2b; settings: Hepatitis C virus
# [12] = Inhibition of NS5A in HCV genotype 1a; design: species or system Hepatitis C virus subtype 1a
# [13] = Inhibition of NS5A in HCV genotype 2b; design: species or system Hepatitis C virus subtype 2b
# [14] = biological target: Nonstructural protein 5A (Hepatitis C virus, UniProt Q5L478, L31V); assay: Inhibition of NS5A in HCV genotype 1a L31V mutant; design: species or system Hepatitis C virus subtype 1a
# [15] = Inhibition of NS5A in HCV genotype 2a; design: species or system Hepatitis C virus subtype 2a
# [16] = biological target: Nonstructural protein 5A (Hepatitis C virus, UniProt Q5L478, Y93H); assay: Inhibition of NS5A in HCV genotype 1a Y93H mutant; design: species or system Hepatitis C virus subtype 1a
# Nonstructural protein 5A (Hepatitis C virus, UniProt Q5L478, Y93H), sequence (Q5L478 entry or part of it Y93H): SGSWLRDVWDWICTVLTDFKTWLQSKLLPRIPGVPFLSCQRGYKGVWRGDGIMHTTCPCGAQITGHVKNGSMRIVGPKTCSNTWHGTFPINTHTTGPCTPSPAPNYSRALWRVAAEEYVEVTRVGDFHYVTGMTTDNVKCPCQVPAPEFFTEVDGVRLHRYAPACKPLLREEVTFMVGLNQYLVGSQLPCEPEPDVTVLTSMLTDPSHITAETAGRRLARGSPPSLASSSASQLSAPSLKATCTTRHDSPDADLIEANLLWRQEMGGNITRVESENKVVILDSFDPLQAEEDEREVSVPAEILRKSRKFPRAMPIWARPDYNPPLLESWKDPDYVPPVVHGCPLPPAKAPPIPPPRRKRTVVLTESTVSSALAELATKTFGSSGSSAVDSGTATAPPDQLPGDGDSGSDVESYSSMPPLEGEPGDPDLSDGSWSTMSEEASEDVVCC
# [17] = Inhibition of NS5A in HCV genotype 3a; design: species or system Hepatitis C virus subtype 3a
# [18] = Inhibition of NS5A in HCV genotype 4a; design: species or system Hepatitis C virus subtype 4a
# [19] = Inhibition of NS5A in HCV genotype 1b; design: species or system Hepatitis C virus subtype 1b
# [20] = Clearance in Sprague-Dawley rat at 10 mg/kg po or 2 mg/kg iv; assay type: ADME, organism-based; settings: in vivo
# [21] = Half life in Sprague-Dawley rat at 10 mg/kg po or 2 mg/kg iv; assay type: ADME, organism-based; settings: in vivo
# [22] = AUC in Sprague-Dawley rat at 10 mg/kg, po; assay type: ADME, organism-based; settings: in vivo
# [23] = Cmax in Sprague-Dawley rat at 10 mg/kg, po; assay type: ADME, organism-based; design: dose 10 mg/kg, route oral; settings: in vivo
# [24] = Oral bioavailability in Sprague-Dawley rat at 10 mg/kg; assay type: ADME, organism-based; settings: in vivo
EC50 [1] [nM],EC50 [3] [nM],EC50 [5] [nM],EC50 [7] [nM],EC50 [8] [nM],EC50 [11] [nM],SMILES,other results
0.002,0.02,0.1,0.004,0.003,1,COC(=O)N[C@H](C(=O)N1CCC[C@H]1c1ncc(-c2ccc3c(c2)OC(C2CC2)n2c-3cc3cc(-c4cnc([C@@H]5CCCN5C(=O)[C@@H](NC(=O)OC)C(C)C)[nH]4)ccc32)[nH]1)C(C)C (some centres not stated),bioavailability [2]: 27%; clearance [4]: 6.2 mL/min/kg; Cmax [6]: 740 nM; half-life [9]: 3.4 h; AUC [10]: 4.4 µM·h
0.001,0.04,0.3,0.002,0.002,2,CCC1Oc2cc(-c3cnc([C@@H]4CCCN4C(=O)[C@@H](NC(=O)OC)C(C)C)[nH]3)ccc2-c2cc3cc(-c4cnc([C@@H]5CCCN5C(=O)[C@@H](NC(=O)OC)C(C)C)[nH]4)ccc3n21 (some centres not stated),bioavailability [2]: 43%; clearance [4]: 5.2 mL/min/kg; Cmax [6]: 1220 nM; half-life [9]: 3.6 h; AUC [10]: 8.4 µM·h
,,,,,,COC(=O)N[C@H](C(=O)N1CCC[C@H]1c1ncc(-c2ccc3c(c2)OCn2c-3cc3cc(-c4cnc([C@@H]5CCCN5C(=O)[C@@H](NC(=O)OC)C(C)C)[nH]4)ccc32)[nH]1)C(C)C,EC50 [12]: 0.01 nM; EC50 [13]: 31 nM; EC50 [14]: 3 nM; EC50 [15]: 0.007 nM; EC50 [16]: 100 nM; EC50 [17]: 0.5 nM; EC50 [18]: 0.06 nM; EC50 [19]: 0.008 nM
,,,,,,COC(=O)N[C@H](C(=O)N1CCC[C@H]1c1nc(-c2ccc3c(c2)O[C@@H](c2ccccc2)n2c-3cc3cc(-c4c[nH]c([C@@H]5CCCN5C(=O)[C@@H](NC(=O)OC)C(C)C)n4)ccc32)c[nH]1)C(C)C [ELBASVIR],EC50 [12]: 0.004 nM; EC50 [13]: 3 nM; EC50 [14]: 0.5 nM; EC50 [15]: 0.003 nM; EC50 [16]: 2 nM; EC50 [17]: 0.02 nM; EC50 [18]: 0.003 nM; EC50 [19]: 0.003 nM
0.007,0.03,0.09,0.003,0.003,23,COC(=O)N[C@H](C(=O)N1CCC[C@H]1c1ncc(-c2ccc3c(c2)OC(C)n2c-3cc3cc(-c4cnc([C@@H]5CCCN5C(=O)[C@@H](NC(=O)OC)C(C)C)[nH]4)ccc32)[nH]1)C(C)C (some centres not stated),clearance [20]: 8.5 mL/min/kg; half-life [21]: 2.2 h; AUC [22]: 6.2 µM·h; Cmax [23]: 990 nM; bioavailability [24]: 26%
0.01,0.02,0.2,0.001,0.001,12,CCCCCCC1Oc2cc(-c3cnc([C@@H]4CCCN4C(=O)[C@@H](NC(=O)OC)C(C)C)[nH]3)ccc2-c2cc3cc(-c4cnc([C@@H]5CCCN5C(=O)[C@@H](NC(=O)OC)C(C)C)[nH]4)ccc3n21 (some centres not stated),
< 0.2,< 0.2,0.6,0.02,< 0.02,2,COC(=O)N[C@H](C(=O)N1CCC[C@H]1c1ncc(-c2ccc3c(c2)OC(C2CCC4(CC2)CC4)n2c-3cc3cc(-c4cnc([C@@H]5CCCN5C(=O)[C@@H](NC(=O)OC)C(C)C)[nH]4)ccc32)[nH]1)C(C)C (some centres not stated),
0.02,0.02,0.3,0.002,0.006,5,COC(=O)N[C@H](C(=O)N1CCC[C@H]1c1ncc(-c2ccc3c(c2)OC(CC(F)(F)F)n2c-3cc3cc(-c4cnc([C@@H]5CCCN5C(=O)[C@@H](NC(=O)OC)C(C)C)[nH]4)ccc32)[nH]1)C(C)C (mixture of isomers),
